Values after ≈ are worked out from the molar mass of the structure shown. Like-named read-outs stand apart in the source and are kept apart here.
Experiments:
HIV-1(IIIB) = test: Anti-HIV-1 activity in CD4+ T-lymphocyte CEM cell cultures; type: cell-based; conditions: Human immunodeficiency virus 1, CCRF-CEM, virus-induced cytopathicity
From the text: (§1) Human CD4 ^+ T-lymphocyte CEM cell cultures were inoculated with HIV-1 and HIV-2 and exposed to adefovir, tenofovir, or PMEO-DAPym. […]

HIV-2(ROD) = test: Anti-HIV-2 activity in CD4+ T-lymphocyte CEM cell cultures; type: cell-based; conditions: Human immunodeficiency virus 2, CCRF-CEM; HIV-2(ROD), CEM, virus-induced cytopathicity; read-out: EC50
From the text: as §1

HSV-2 (G) [1] = test: HSV-2 infection of primary monocyte/macrophage (M/M) cultures; type: cell-based
Procedure: We obtained human PBMC from the blood of healthy seronegative donors using Ficoll–Hypaque density gradient centrifugation. The PBMC were resuspended in RPMI 1640 medium supplemented with 20% heat-inactivated serum and then seeded into 48-well plates (1.8×10^6 cells/well). M/M were separated by adherence onto plastic. After 5 days, non-adherent cells were carefully removed by repeated gentle washings with warm medium, and adherent M/M were cultured for an additional 3 days to mature and to form a monolayer. M/M were estimated to be 10^5 cells/well at the time of infection. […]. Similarly, macrophage cultures were treated with the same concentrations of adefovir and tenofovir. Macrophage cultures were then infected with HSV-2 (G) (100 TCID50) in the presence of the compounds. After 2 h of adsorption, the cultures were extensively washed to remove any residual virus particles. Fresh complete medium and compounds, at the established concentrations, were then added to the cultures. Appropriate positive (infected but not treated) and mock-infected negative (uninfected and untreated) M/M controls were run for each experiment as well. All assays were performed in triplicate. […] We determined the amount of infectious virus in the supernatants 5–6 days after infection using the cytopathic effect assay. Tenfold serially diluted supernatants were added to confluent monolayers of Vero cells in 96-well plates (100 µl/well, 6 parallel wells). […] The titers of virus produced were calculated according to the Reed and Muench method and expressed as 50% tissue culture infective dose per mL (TCID50/mL).

HSV-2 (G) [2] = test: HSV-2 replication in human ex vivo tonsillar (lymphoid) tissue, viral DNA; type: cell-based
From the text: Figure 5 Suppression of HSV-2 in infected human ex vivo tonsillar tissue by adefovir and PMEO-DAPym. Blocks of human tonsillar tissue were inoculated ex vivo with HSV-2 (G) and treated or not with adefovir or PMEO-DAPym. We monitored HSV-2 (G) replication by measuring viral DNA in culture media at different times throughout the culture period. Presented are means ± SEM of cumulative HSV-2 (G) replication in tissues from two to six donors. For each donor, data represent pooled viral release from 27 tissue blocks.
Figure 7 Suppression of HSV-2 in single-infected and HIV-1 co-infected human ex vivo tonsillar tissue by adefovir and PMEO-DAPym. Panels A and B: Blocks of human tonsillar tissue from five different donors were co-inoculated ex vivo with HSV-2 (G) and HIV-1 (LAI) and treated or not with adefovir or PMEO-DAPym (1 µg/ml). For tissue from each donor, we monitored replication of both viruses by evaluating their accumulation in the culture media bathing 27 tissue blocks at different times throughout the culture. We evaluated HIV-1 replication by measuring p24gag and HSV-2 (G) replication by measuring HSV-2 viral DNA. Panel A: Presented are kinetics of HSV-2 (G) and HIV-1 (LAI) replication (insert). Each point represents the mean ± SEM of viral replication in tissues from five donors. Panel B: Presented are means ± SEM of cumulative HSV-2 (G) and HIV-1 (LAI) replication (insert).
Human tonsillar tissues were obtained from patients undergoing routine tonsillectomy at the Children's National Medical Center (Washington, DC) under IRB-approved protocol. Cervical tissues were obtained through the National Disease Research Interchange (NDRI, Philadelphia, PA). Tissues were dissected into blocks of about 2×2×2 mm and placed onto collagen sponge gels in culture medium at the air-liquid interface as described earlier. For tonsillar tissue for each experimental condition, 27 tissue blocks (9 blocks/well filled with 3 ml of medium) were inoculated with HSV-1 (strain F) or HSV-2 (strains G and MS). In coinfection experiments, tissue blocks were sequentially infected with HSV-2 (G) and HIV-1 (IIIB) (obtained from the Rush University Virology Quality Assurance Laboratory, Chicago, IL). Drugs (adefovir and PMEO-DAPym) were added to the culture medium 12 h prior to viral infection and replenished at each culture medium change.
For cervico-vaginal tissue, 16 blocks were infected by immersion in HSV-2G-containing medium and maintained on the gelfoam rafts. Adefovir was added at the time of infection and replenished at each culture medium change. HSV replication was evaluated from the release of viral DNA into the culture medium as measured with quantitative real-time PCR [18]. We evaluated HIV-1 replication from the release of p24 capsid antigen using a bead-based assay.

HSV-1 (KOS strain) = test: Pre-treatment of PHK cell cultures, HSV-1 infection (CPE)
Procedure: (§2) The HSV-induced cytopathic effect (CPE) was evaluated in HSV-infected HEL and PHK cultures as described [44], [48].

HSV-2 (G strain) = test: Pre-treatment of PHK cell cultures, HSV-2 infection (CPE)
Procedure: as §2

## Nc1nc2c(ncn2COCCO)c(=O)[nH]1 [Acyclovir, 9-(2-hydroxyethyloxymethyl)guanine]
HIV-1(IIIB)
  EC50: > 100 µg/mL
HIV-2(ROD)
  EC50: > 100 µg/mL
HSV-2 (G) [1]; 0.000025 µg/ml
  Cytopathicity (CPE) on macrophages 6 days after infection % CPE: 75%
  Virus production by HSV2-infected macrophages 6 days after infection (CPE reduction): 1.3×10^4 TCID50/ml
HSV-2 (G) [1]; 0.000128 µg/ml
  Cytopathicity (CPE) on macrophages 6 days after infection % CPE: 40%
  Virus production by HSV2-infected macrophages 6 days after infection (CPE reduction): 7.2×10^3 TCID50/ml
HSV-2 (G) [1]; 0.00064 µg/ml
  Cytopathicity (CPE) on macrophages 6 days after infection % CPE: 10%
  Virus production by HSV2-infected macrophages 6 days after infection (CPE reduction): 3.5×10^2 TCID50/ml
HSV-2 (G) [1]; 0.003 µg/ml
  Virus production by HSV2-infected macrophages 6 days after infection (CPE reduction): No virus
HSV-2 (G) [1]; 0.016 µg/ml
  Virus production by HSV2-infected macrophages 6 days after infection (CPE reduction): No virus
HSV-2 (G) [1]; 0.08 µg/ml
  Virus production by HSV2-infected macrophages 6 days after infection (CPE reduction): No virus
HSV-2 (G) [1]; Human alphaherpesvirus 2, 144 h, 0.000025 µg/ml, M/M, day 6, read-out: Inhibition of viral replication (% to control)
  inhibition at 25 pg/mL: 7.2%
HSV-2 (G) [1]; Human alphaherpesvirus 2, 144 h, 0.000128 µg/ml, M/M, day 6, read-out: Inhibition of viral replication (% to control)
  inhibition at 0.000128 µg/mL: 49%
HSV-2 (G) [1]; Human alphaherpesvirus 2, 144 h, 0.00064 µg/ml, M/M, day 6, read-out: Inhibition of viral replication (% to control)
  inhibition at 0.00064 µg/mL: 97%
HSV-2 (G) [1]; Human alphaherpesvirus 2, 144 h, 0.003 µg/ml, M/M, day 6, read-out: Inhibition of viral replication (% to control)
  inhibition at 0.003 µg/mL: 100%
HSV-2 (G) [1]; Human alphaherpesvirus 2, 144 h, 0.016 µg/ml, M/M, day 6, read-out: Inhibition of viral replication (% to control)
  inhibition at 0.016 µg/mL: 100%
HSV-2 (G) [1]; Human alphaherpesvirus 2, 144 h, 0.08 µg/ml, M/M, day 6, read-out: Inhibition of viral replication (% to control)
  inhibition at 0.08 µg/mL: 100%
HSV-2 (G) [1]; Human alphaherpesvirus 2, HSV-2 (G), human monocyte/macrophages
  EC50: 0.13 ± 0.015 µg/mL (≈ 0.577 µM)
HSV-2 (G) [2]; Human alphaherpesvirus 2, human lymphoid tissue ex vivo, 0.3 µg/mL, read-out: Inhibition of viral replication (% to control)
  inhibition at 0.3 µg/mL: 99.9%
HSV-2 (G) [2]; Human alphaherpesvirus 2, human lymphoid tissue ex vivo, 3 µg/mL, read-out: Inhibition of viral replication (% to control)
  inhibition at 3 µg/mL: > 99%
HSV-2 (G) [2]; human lymphoid tissue ex vivo, 0.3 µg/mL
  HSV-2 DNA copies: 1.69 e+5 copies
HSV-2 (G) [2]; human lymphoid tissue ex vivo, 3 µg/mL
  HSV-2 DNA copies: 2.83 e+4 copies
HSV-2 (G) [2]; human lymphoid tissue ex vivo, 3 µg/mL, listed as ACV
  Inhibition of viral replication (% to control): 99.98%
HSV-1 (KOS strain); Human alphaherpesvirus 1, read-out: 50% effective concentration, PHK, HSV-1 KOS, +2 h to 72 h (control, drug present whole incubation)
  EC50: 0.33 ± 0.25 µg/mL (≈ 1.47 µM)
HSV-1 (KOS strain); Human alphaherpesvirus 1, read-out: 50% effective concentration, PHK, HSV-1 KOS, pretreatment −2.5 h to 0 h
  EC50: > 50 µg/mL
HSV-1 (KOS strain); Human alphaherpesvirus 1, read-out: 50% effective concentration, PHK, HSV-1 KOS, pretreatment −6 h to 0 h
  EC50: > 50 µg/mL
HSV-1 (KOS strain); Human alphaherpesvirus 1, read-out: 50% effective concentration, PHK, HSV-1 KOS, pretreatment −18 h to 0 h
  EC50: > 50 µg/mL
HSV-2 (G strain); Human alphaherpesvirus 2, read-out: 50% effective concentration, PHK, HSV-2 G, +2 h to 72 h (control, drug present whole incubation)
  EC50: 0.41 ± 0.13 µg/mL (≈ 1.82 µM)
HSV-2 (G strain); Human alphaherpesvirus 2, read-out: 50% effective concentration, PHK, HSV-2 G, pretreatment −2.5 h to 0 h
  EC50: 50 µg/mL (≈ 222 µM)
HSV-2 (G strain); Human alphaherpesvirus 2, read-out: 50% effective concentration, PHK, HSV-2 G, pretreatment −6 h to 0 h
  EC50: > 50 µg/mL
HSV-2 (G strain); Human alphaherpesvirus 2, read-out: 50% effective concentration, PHK, HSV-2 G, pretreatment −18 h to 0 h
  EC50: > 50 µg/mL

Reference: paper PMC3723632, “A Multi-targeted Drug Candidate with Dual Anti-HIV and Anti-HSV Activity” (PLoS Pathogens, 2013)
